For this assay, the system named is mouse melanoma cell line (B16F1). The assay can be described thus: Cytotoxicity tests with a mouse melanoma cell line (B16F1). The following applies: B16F1 mouse melanoma cells, concentration of 100 μM. The format is cell-based.

The results in this text go back to patent US7692002B2, “Metal complexes having vitamin B12 as a ligand” (University of Zurich, priority 2004, dated 2010).

As to Cyanocobalamin [vitamin B12], the proliferation inhibition entry is reported as “no effect at all”.
